Results: patent US10725055B1, “Compounds for carbonyl sulfide/carbon disulfide/hydrogen sulfide release and methods of making and using the same” (University of Oregon, priority 2016, dated 2020)
“Also recorded” adds a separate entry of the source. Where two headings read alike, the source gives them in different places.

Legend:
[1] = absence of esterase
[2] = test system: porcine liver esterase (PLE); assay: H2S release from 5 detected with H2S-responsive fluorescent probe MeRho-Az; settings: 50 μM compound, 5 μM MeRho-Az, CA, 1 U/mL PLE
BEAS 2B cells [3] = settings: for LDH levels: 10 μM, 24 hours
Procedure: Lactate dehydrogenase (LDH) release was determined as a cytotoxicity assay, a measurement of necrotic cell death, as described previously. Briefly, 30 μL of supernatant was saved before addition of MTT and mixed with 100 μL of freshly prepared LDH assay reagent to reach final concentrations of 85 mM lactic acid, 1040 mM nicotinamide adenine dinucleotide (NAD+), 224 mM N-methylphenazonium methyl sulfate (PMS), 528 mM 2-(4-lodophenyl)-3-(4-nitrophenyl)-5-phenyl-2H-tetrazolium chloride (INT) and 200 mM Tris (pH 8.2). The changes in absorbance were read kinetically at 492 nm for 15 min (kinetic LDH assay) on a monochromator-based reader (Powerwave HT, Biotek) at 37° C. LDH activity values are shown as Vmax for the kinetic assays in mOD/min.

[4] = test system: porcine liver esterase (PLE); assay: Esterase (PLE)-triggered H2S release, H2S-selective electrode
BEAS 2B cells [5] = assay: Bioenergetic analysis in cultured cells (XF24 Extracellular Flux Analyzer); format: cell-based, human; settings: for ATP synthesis / maximal respiration / oxygen consumption linked with basal respiration: 1, 3, 10 μM, 24 hours; for inhibition of cellular bioenergetics: same conditions, 1, 3, 10 μM
Source text: Cells were then washed with PBS.

BEAS 2B cells [6] = test system: BEAS 2B cells
BEAS 2B cells [7] = test system: BEAS 2B cells; remark: listed apart in the source
[8] = H2S release from photo-triggerable compounds under UV light, methylene blue (MB) assay; settings: for peaking time for H2S release: 50 μM, LED UV light 365 nm, PBS pH 7.4, CA 25 μg/mL
[9] = Fluorescence response of MeRho-TCA to NaSH and other RSONs
[10] = Total sulfide in whole mouse blood, monobromobimane (mBB) method; settings: 25 μM compound, 30 minutes incubation with excess TCEP
HeLa cells [11] = assay: Cytotoxicity in HeLa cells, CCK-8; settings: 10-100 μM, 2 hour incubation
HeLa cells [12] = assay: Cytoprotection against H2O2-induced oxidative stress, CCK-8; format: cell-based; settings: H2O2 100 μM, compound 10-50 μM, 1 hour
[13] = H2O2-triggered H2S release from PeroxyTCM/TCM compounds, H2S electrode; settings: for H2S release upon treatment with H2O2: PBS pH 7.4, CA 25 μg/mL; for H2S release efficiency: 50 μM compound
[14] = biological target: CA from bovine erythrocytes (Bos taurus, UniProt P00921); format: biochemical
[15] = H2S release from azidobenzyl thiocarbamate/carbamate after TCEP reduction in presence of CA, H2S electrode; settings: buffer containing CA; for H2S release upon injection of TCEP: TCEP added
[16] = NMR monitoring of self-immolation after TCEP reduction; format: physicochemical; settings: 1H, 13C{1H}, 19F NMR
Source text: In some embodiments, an azide in the para position of the benzylthiocarbamate was used to function as the H2S-responsive “trigger” for self-immolation and COS release. To facilitate NMR identification of the products, azidobenzylthiocarbamate (donor compound 1 of FIG. 2) was made with a p-fluoroaniline payload, and the corresponding carbamate (donor compound 2 of FIG. 2) as a control donor compound. Although donor compound 2 should undergo the same self-immolative decomposition upon azide reduction, it will release CO2 rather than COS, and thus should not result in H2S donation upon reaction with CA. […] The disappearance of the benzylic peak, loss of the thiocarbonyl carbon peak, and formation of new resonances upon self-immolation by NMR spectroscopy (FIGS. 3A-3C) confirmed that self-immolation occurs. All such changes were observed within 5 minutes of TCEP addition, confirming the rapid self-immolation of the scaffold upon reduction, and were consistent with COS release from the thiocarbamate scaffold upon azide reduction.

[17] = not given; remark: listed apart in the source
RAW 264.7 cells = settings: 50 μM compound
HeLa cells [18] = settings: 50 μM compound
[19] = at concentrations lower than 30 μM
[20] = COS gas in 10 mM PBS, pH 7.4, no CA

CA from bovine erythrocytes, sequence (P00921 whole entry): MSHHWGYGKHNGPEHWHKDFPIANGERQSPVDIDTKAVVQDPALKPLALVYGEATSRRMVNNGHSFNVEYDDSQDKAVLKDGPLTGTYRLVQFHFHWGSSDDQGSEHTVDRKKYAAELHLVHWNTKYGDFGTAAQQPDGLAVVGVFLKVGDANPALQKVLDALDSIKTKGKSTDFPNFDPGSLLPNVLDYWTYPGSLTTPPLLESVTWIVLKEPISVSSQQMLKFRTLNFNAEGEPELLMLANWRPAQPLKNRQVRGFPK

SMILES: Cc1ccc(NC(=S)OCc2ccc(OC(=O)C(C)(C)C)cc2)cc1 [compound 5]
- stability in aqueous solution [1]: stable
- fluorescence response of MeRho-Az [2]: fluorescence turn-on consistent with H2S release
- LDH levels (BEAS 2B cells [3]): increase in LDH levels
- H2S release with PLE ([4]; 1 U/mL PLE in the presence of CA): immediate H2S release
- H2S release with increased PLE ([4]; 20 U/mL PLE, otherwise identical conditions): significantly faster H2S release
- rate of H2S production with acetazolamide (AAA) ([4]; PLE, CA, CA inhibitor AAA): significantly reduced the rate of H2S production
- H2S generation without esterase ([4]; pH 7.4 PBS, CA 25 μg/mL, no PLE): did not result in H2S generation
- ATP synthesis (BEAS 2B cells [5]): negatively affected
- maximal respiration (BEAS 2B cells [5]): negatively affected
- oxygen consumption linked with basal respiration (BEAS 2B cells [5]): negatively affected
- cytotoxicity during live cell imaging (BEAS 2B cells [6]): high cytotoxicity

SMILES: O=C(CCCCCCCCC[P+](c1ccccc1)(c1ccccc1)c1ccccc1)Oc1ccc(-c2cc(=S)ss2)cc1.[Br-] [AP39, reference compound]
- cytotoxicity, LDH assay (BEAS 2B cells [3]; at 30 μM): minimal cytotoxicity
- cytotoxicity, LDH assay (BEAS 2B cells [3]; [19]): none
- cytotoxicity, MTT assay (BEAS 2B cells [7]; at 30 μM): minimal cytotoxicity
- cytotoxicity, MTT assay (BEAS 2B cells [7]; [19]): none
- inhibition of cellular bioenergetics (BEAS 2B cells [5]): No significant inhibition of cellular bioenergetics

SMILES: O=[N+]([O-])c1ccccc1COC(=S)Nc1ccc(F)cc1 [PhotoTCM-1]
- peaking time for H2S release [8]: ~10 min
- H2S generation in the absence of UV irradiation ([8]; PBS pH 7.4, no UV): did not generate H2S
- H2S release upon UV irradiation with CA ([8]; UV 10 min, CA 25 μg/mL): significant enhancement of H2S concentration
- H2S upon UV irradiation in the absence of CA ([8]; UV 10 min, no CA): low levels of H2S
- H2S upon UV irradiation with CA and acetazolamide (AAA) ([8]; UV, CA 25 μg/mL, AAA 10 μM): significantly reduced
- H2S generation with cellular nucleophiles ([8]; cysteine, homocysteine, GSH, GSSG, serine, lysine, in the presence of CA): does not generate H2S

SMILES: [N-]=[N+]=Nc1ccc(COC(=S)Nc2ccc3c(c2)Oc2ccccc2C32OC(=O)c3ccccc32)cc1 (stereo not shown) [MeRho-TCA, O-(4-Azidobenzyl)-N-methylrhodolthiocarbamate]
- fluorescence turn-on ([9]; 50 equivalents of NaSH, PBS, 1 mM CTAB, pH 7.4, over 90 minutes): 65 fold
- selectivity of fluorescence response ([9]; vs Cys, GSH, Hcy, S2O3 2-, SO3 2-, SO4 2-, H2O2, NO): excellent selectivity for H2S over other RSONs

SMILES: NC(=S)OCc1ccccc1 [compound 7]
- LDH levels (BEAS 2B cells [3]): not observed
- cell viability (MTT reduction) (BEAS 2B cells [7]; 10 μM, 24 hours): not observed
- direct cleavage of benzyl thiocarbamate moiety by PLE ([4]; control lacking the ester trigger): not cleaved directly by PLE
- ATP synthesis (BEAS 2B cells [5]): no effect
- maximal respiration (BEAS 2B cells [5]): only slightly decreased maximal respiration at 10 μM
- oxygen consumption linked with basal respiration (BEAS 2B cells [5]): no effect

SMILES: Cc1ccc(NC(=S)OCc2ccccc2)cc1 [compound 3, O-(4-Benzyl)-N-tolylthiocarbamate]
- total sulfide levels in blood [10]: Only samples containing donor 4 with the azide trigger increased total sulfide levels

SMILES: C1COCCN1.COc1ccc(P(=S)(S)N2CCOCC2)cc1 (stereo not shown) [GYY4137, reference compound]
- cytotoxicity, LDH assay, compared to DMSO vehicle (BEAS 2B cells [3]; up to 30 μM): no significant cytotoxicity
- cytotoxicity, MTT assay, compared to DMSO vehicle (BEAS 2B cells [7]; up to 30 μM): no significant cytotoxicity
- inhibition of cellular bioenergetics (BEAS 2B cells [5]): No significant inhibition of cellular bioenergetics

SMILES: CC1(C)OB(c2ccc(COC(=O)Nc3ccc(F)cc3)cc2)OC1(C)C [PeroxyCM-1]
- cell viability (cytotoxicity) (HeLa cells [11]): No significant decrease in cell viability
- cell viability / protection against H2O2-mediated oxidative stress (HeLa cells [12]): attenuated rescue from oxidative stress

SMILES: Cc1ccc(NC(=S)OCc2ccccc2)cc1 [TCM-2]
- H2S release upon treatment with H2O2 [13]: did not release H2S

SMILES: O=C=S [COS, carbonyl sulfide]
- H2S from COS after H2O2 addition [20]: rapid H2S generation
- H2S from COS prior to H2O2 addition [20]: No H2S was detected
- H2S production from COS ([14]; COS gas in deoxygenated PBS, 1 mM CTAB, pH 7.4, with CA): rapid H25 production
- H2S formation from COS ([14]; buffer in the absence of CA): negligible current; also recorded: minimal H2S formation

SMILES: O=C(Nc1ccc(F)cc1)OCc1ccccc1[N+](=O)[O-] [PhotoCM-1]
- H2S release upon UV irradiation with CA ([8]; UV 10 min, CA 25 μg/mL): no H2S release was observed

SMILES: [N-]=[N+]=Nc1ccc(COC(=O)Nc2ccc(F)cc2)cc1 [compound 2, O-(4-Azidobenzyl)-N-(4-fluorophenyl)carbamate]
- H2S release upon injection of TCEP [15]: no H2S was produced

SMILES: [N-]=[N+]=Nc1ccc(COC(=S)Nc2ccc(F)cc2)cc1 [compound 1, O-(4-Azidobenzyl)-N-(4-fluorophenyl)thiocarbamate]
- time to NMR changes showing self-immolation after TCEP addition [16]: ≤ 5 min
- H2S release upon injection of TCEP [15]: rapid release of H2S
- H2S formation before TCEP ([15]; no TCEP): did not result in H2S formation; also recorded: no H2S is formed

SMILES: COc1cc(COC(=S)Nc2ccc(F)cc2)c([N+](=O)[O-])cc1OC [PhotoTCM-2]
- peaking time for H2S release [8]: ~10 min

SMILES: CC1(C)OB(c2ccc(COC(=S)Nc3ccc(F)cc3)cc2)OC1(C)C [PeroxyTCM-1]
- H2S release efficiency ([13]; 250 μM H2O2): 80%
- H2S release efficiency ([13]; 500 μM H2O2): 60%
- H2S release after incubation with H2O2, O2−, or ONOO− ([17]; 50 μM compound, RSONS 500 μM, CA 25 μg/mL, 20 min): resulted in H2S release
- H2S release after incubation with other RSONS ([17]; ClO−, HO, 1O2, TBHP, tBuO, Cys, GSH, GSSG, GSNO, NO2, SO4 2−, S2O3 2−, NO, HNO): failed to release H2S
- HSN2 signal after addition of PMA (RAW 264.7 cells; 500 nM PMA): significant increase in signal from HSN2
- HSN2 signal in the absence of PMA (RAW 264.7 cells; HSN2 5 μM): no fluorescent signal from HSN2
- H2S release with H2O2 in the absence of CA (H2O2 10 equiv, no CA): positive H2S release response
- cell viability (cytotoxicity) (HeLa cells [11]): No significant decrease in cell viability
- cell viability / protection against H2O2-mediated oxidative stress (HeLa cells [12]): significant dose-dependent increase of cell viability
- HSN2 fluorescence after addition of H2O2 (HeLa cells [18]; H2O2 25 μM or 50 μM): H2O2 dose-dependent increase in HSN2 fluorescence
- HSN2 fluorescence in the absence of H2O2 (HeLa cells [18]; HSN2 5 μM): no HSN2 fluorescence was observed

SMILES: Fc1ccc(NC(=S)OCc2ccccc2)cc1 [TCM-1]
- H2S release upon treatment with H2O2 [13]: did not release H2S
- H2S release upon UV irradiation with CA ([8]; UV 10 min, CA 25 μg/mL): did not release H2S
- cell viability (cytotoxicity) (HeLa cells [11]): No significant decrease in cell viability
- cell viability / protection against H2O2-mediated oxidative stress (HeLa cells [12]): no protection

SMILES: Cc1ccc(NC(=O)OCc2ccc(OC(=O)C(C)(C)C)cc2)cc1 [compound 6]
- LDH levels (BEAS 2B cells [3]): not observed
- ATP synthesis (BEAS 2B cells [5]): increases
- maximal respiration (BEAS 2B cells [5]): did not negatively impact
- oxygen consumption linked with basal respiration (BEAS 2B cells [5]): increases

SMILES: Cc1ccc(NC(=S)OCc2ccc(N=[N+]=[N-])cc2)cc1 [compound 4]
- total sulfide levels in blood [10]: increased total sulfide levels in blood
